Data published in patent US20260325533A1, “CDK INHIBITOR COMPOUNDS” (ALEKSIA THERAPEUTICS, INC., priority 2023, published 2026).
Read-outs that look alike come from different tables or passages of the source.

Columns and labels:
Type in all cases: biochemical
[1] = target: CDK2/CCNE1 (Homo sapiens, UniProt P24941); experiment: CDK2 homogeneous time-resolved fluorescence (HTRF) kinase assay; settings: CDK2/CCNE
Outline: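 TR-FRET read-out (665 nm, or 665/615 ratio) of Eu-antibody detection of phospho-4E-BP1 (Thr37/46) ULight peptide. Enzyme 3 nM, ATP 1 mM, peptide 50 nM, 1% DMSO; 60 min reaction at 23 °C after 20 min compound preincubation. IC50 from 11-point half-log titrations, top typically 10 μM.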

[2] = target: CDK1/CCNB1 (Homo sapiens, UniProt P06493); experiment: CDK1 homogeneous time-resolved fluorescence (HTRF) kinase assay; settings: CDK1/CCNB
Outline: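 HTRF assay with 0.5 nM CDK1/CCNB1, 1 mM ATP, 50 nM ULight-eIF4E-BP1 (Thr37/46) peptide; compound preincubated 20 min, reaction 60 min at 23 °C, EDTA stop, Eu-anti-phospho antibody detection. 11-point half-log titration from 10 μM, 1% DMSO; IC50 from 665 nm or 665/615 signal.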

[3] = target: CDK4/CCND3 (Homo sapiens, UniProt P11802); experiment: CDK4 homogeneous time-resolved fluorescence (HTRF) kinase assay; settings: CDK4/CCND
Outline: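 HTRF kinase assay, CDK4/CCND3 1.5 nM, ATP 1 mM, ULight-4E-BP1 peptide 50 nM, 23 °C, 60 min reaction after 20 min preincubation. Eu-anti-pThr37/46 antibody detection. 11-pt half-log curves from 10 μM → IC50.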

[4] = target: CDK6/CCND1 (Homo sapiens, UniProt Q00534); experiment: CDK6 homogeneous time-resolved fluorescence (HTRF) kinase assay; settings: CDK6/CCND
Outline: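 Recombinant CDK6/CCND1 (1 nM final) was preincubated with compound for 20 min at 23 °C in HEPES buffer with MgCl2, EGTA, DTT and Tween 20. Kinase reaction then ran 60 min at 23 °C with 1 mM ATP and 50 nM ULight-4E-BP1 (Thr37/46) peptide, and was stopped with EDTA.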

[5] = x = IC50 <25 nM, read-out: CDK2/CCNE IC50 (<25 nM)
[6] = x = IC50 >250 nM, read-out: CDK1/CCNB IC50 (>250 nM column)
[7] = x = IC50 >250 nM, read-out: CDK4/CCND IC50 (>250 nM column)
[8] = x = IC50 >250 nM, read-out: CDK6/CCND IC50 (>250 nM column)
[9] = <25 nM, read-out: CDK2/CCNE IC50, <25 nM
[10] = >250 nM, read-out: CDK1/CCNB IC50 >250 nM
[11] = 25-250 nM, read-out: CDK4/CCND IC50, 25-250 nM
[12] = 25-250 nM, 1 mM ATP, read-out: CDK6/CCND IC50, 25-250 nM
[13] = 25-250 nM, read-out: CDK2/CCNE IC50, 25-250 nM
[14] = >250 nM, read-out: CDK4/CCND IC50, >250 nM
[15] = >250 nM, 1 mM ATP, read-out: CDK6/CCND IC50, >250 nM
[16] = x = IC50 25-250 nM, read-out: CDK1/CCNB IC50 (25-250 nM)
[17] = x = IC50 25-250 nM, read-out: CDK2/CCNE IC50 (25-250 nM)

Sequence of CDK6/CCND1 (Q00534 whole entry): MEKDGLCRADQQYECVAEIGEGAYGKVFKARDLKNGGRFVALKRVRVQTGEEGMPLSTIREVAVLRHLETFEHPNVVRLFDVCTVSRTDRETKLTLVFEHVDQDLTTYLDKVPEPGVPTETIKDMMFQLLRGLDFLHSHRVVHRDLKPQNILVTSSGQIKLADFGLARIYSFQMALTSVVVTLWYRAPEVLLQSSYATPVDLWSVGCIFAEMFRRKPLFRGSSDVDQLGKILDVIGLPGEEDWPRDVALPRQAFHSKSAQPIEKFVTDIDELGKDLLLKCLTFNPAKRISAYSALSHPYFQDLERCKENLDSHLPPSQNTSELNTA
Sequence of CDK6/CCND1 (P24385 whole entry partner): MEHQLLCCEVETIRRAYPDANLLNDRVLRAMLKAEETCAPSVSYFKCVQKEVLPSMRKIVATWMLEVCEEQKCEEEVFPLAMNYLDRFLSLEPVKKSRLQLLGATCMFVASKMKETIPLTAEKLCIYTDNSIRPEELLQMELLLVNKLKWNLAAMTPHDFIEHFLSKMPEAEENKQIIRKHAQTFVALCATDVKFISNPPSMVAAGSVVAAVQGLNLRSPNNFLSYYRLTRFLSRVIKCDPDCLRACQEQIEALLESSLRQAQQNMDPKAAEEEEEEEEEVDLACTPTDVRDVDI
Sequence of CDK1/CCNB1 (P06493 whole entry): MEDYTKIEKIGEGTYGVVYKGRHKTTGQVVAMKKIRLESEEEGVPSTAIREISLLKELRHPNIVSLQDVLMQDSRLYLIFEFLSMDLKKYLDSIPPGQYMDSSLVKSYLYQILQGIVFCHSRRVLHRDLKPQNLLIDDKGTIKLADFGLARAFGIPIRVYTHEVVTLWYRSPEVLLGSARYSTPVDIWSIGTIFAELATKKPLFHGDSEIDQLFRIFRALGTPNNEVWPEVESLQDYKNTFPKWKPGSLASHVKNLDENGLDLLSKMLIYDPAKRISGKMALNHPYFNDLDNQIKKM
Sequence of CDK1/CCNB1 (P14635 whole entry partner): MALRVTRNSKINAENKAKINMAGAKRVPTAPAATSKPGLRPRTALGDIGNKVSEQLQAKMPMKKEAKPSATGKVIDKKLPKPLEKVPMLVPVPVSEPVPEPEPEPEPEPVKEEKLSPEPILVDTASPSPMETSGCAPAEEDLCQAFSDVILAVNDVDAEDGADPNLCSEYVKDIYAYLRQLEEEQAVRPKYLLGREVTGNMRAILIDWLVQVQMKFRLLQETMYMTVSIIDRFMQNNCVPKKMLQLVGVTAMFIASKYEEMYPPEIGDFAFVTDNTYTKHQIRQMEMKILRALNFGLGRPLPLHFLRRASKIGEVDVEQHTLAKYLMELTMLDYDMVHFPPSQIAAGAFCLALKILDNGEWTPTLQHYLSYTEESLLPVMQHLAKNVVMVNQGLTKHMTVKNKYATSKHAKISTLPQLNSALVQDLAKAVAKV
Sequence of CDK4/CCND3 (P11802 whole entry): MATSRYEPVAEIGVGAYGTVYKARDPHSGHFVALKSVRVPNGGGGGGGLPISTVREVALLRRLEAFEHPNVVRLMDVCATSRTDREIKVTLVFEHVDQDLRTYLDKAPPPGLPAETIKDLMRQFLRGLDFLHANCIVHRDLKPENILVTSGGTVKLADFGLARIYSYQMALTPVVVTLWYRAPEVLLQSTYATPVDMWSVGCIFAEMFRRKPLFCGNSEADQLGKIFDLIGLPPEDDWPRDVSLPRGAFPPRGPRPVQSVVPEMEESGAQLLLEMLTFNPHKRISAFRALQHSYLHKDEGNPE
Sequence of CDK4/CCND3 (P30281 whole entry partner): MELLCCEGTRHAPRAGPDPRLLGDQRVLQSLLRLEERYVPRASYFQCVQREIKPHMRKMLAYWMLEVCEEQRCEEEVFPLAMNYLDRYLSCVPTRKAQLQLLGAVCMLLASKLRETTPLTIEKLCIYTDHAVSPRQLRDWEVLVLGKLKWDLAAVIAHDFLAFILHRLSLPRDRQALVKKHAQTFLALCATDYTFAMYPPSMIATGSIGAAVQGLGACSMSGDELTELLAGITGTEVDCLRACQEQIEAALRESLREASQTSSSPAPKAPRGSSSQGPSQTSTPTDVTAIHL

| SMILES | IC50 [2, 6] [nM] | IC50 [3, 7] [nM] | IC50 [4, 8] [nM] | IC50 [1, 17] [nM] | other results |
| --- | --- | --- | --- | --- | --- |
| Cc1cc(C)nc(NS(=O)(=O)c2ccc(Nc3cc4c(-c5ccc6c(cnn6CC(C)(C)O)c5C)nccc4cn3)cc2)c1 [Ex 818, N-(4,6-dimethylpyridin-2-yl)-4-((5-(1-(2-hydroxy-2-methylpropyl)-4-methyl-1H-indazol-5-yl)-2,6-naphthyridin-3-yl)amino)benzenesulfonamide] | – | – | – | – | IC50 [1, 9]: < 25 nM; IC50 [2, 10]: > 250 nM; IC50 [3, 11]: 25 to 250 nM; IC50 [4, 12]: 25 to 250 nM |
| N#Cc1ccc(C#Cc2nccc3cnc(Nc4cnc(O)c(N5CCNCC5)c4)cc23)cc1 [Ex 917, 4-((7-((6-hydroxy-5-(piperazin-1-yl)pyridin-3-yl)amino)-2,6-naphthyridin-1-yl)ethynyl)benzonitrile] | – | – | – | – | IC50 [1, 13]: 25 to 250 nM; IC50 [2, 10]: > 250 nM; IC50 [3, 14]: > 250 nM; IC50 [4, 15]: > 250 nM |
| CS(=O)(=O)c1ccc(Nc2cc3c(-c4ccc5c(c4)CNC(=O)C5)nccc3cn2)cc1 [Ex 649, 7-(7-((4-(methylsulfonyl)phenyl)amino)-2,6-naphthyridin-1-yl)-1,4-dihydroisoquinolin-3(2H)-one] | > 250 | > 250 | > 250 | 25 to 250 | – |
| CCS(=N)(=O)c1ccc(Nc2cc3c(C#Cc4cccnc4N)nccc3cn2)cc1 (racemic) [Ex 489, (4-((5-((2-aminopyridin-3-yl)ethynyl)-2,6-naphthyridin-3-yl)amino)phenyl)(ethyl)(imino)-l6-sulfanone] | > 250 | > 250 | > 250 | 25 to 250 | – |
| Cc1cc2[nH]ncc2cc1-c1nccc2cnc(NC3CCN(S(C)(=O)=O)CC3)cc12 [Ex 117, 5-(6-methyl-1H-indazol-5-yl)-N-(1-(methylsulfonyl)piperidin-4-yl)-2,6-naphthyridin-3-amine] | – | – | – | – | IC50 ([1]; <25 nM, read-out: CDK2/CCNE IC50 <25 nM): < 25 nM; IC50 ([2]; 25-250 nM marked x, read-out: CDK1/CCNB IC50 25-250 nM): 25 to 250 nM; IC50 ([3]; <25 nM, read-out: CDK4/CCND IC50 <25 nM): < 25 nM; IC50 ([4]; <25 nM, read-out: CDK6/CCND IC50 <25 nM): < 25 nM |
| Cc1c(-c2nccc3cnc(Nc4ccc(S(=O)(=O)Nc5cc(N6CCOCC6)ccn5)cc4)cc23)ccc2c1cnn2CC(O)(C(F)(F)F)C(F)(F)F [Ex 741, 4-((5-(4-methyl-1-(3,3,3-trifluoro-2-hydroxy-2-(trifluoromethyl)propyl)-1H-indazol-5-yl)-2,6-naphthyridin-3-yl)amino)-N-(4-morpholinopyridin-2-yl)benzenesulfonamide] | – | – | – | – | IC50 [1, 9]: < 25 nM; IC50 [2, 10]: > 250 nM; IC50 [3, 14]: > 250 nM; IC50 [4, 15]: > 250 nM |
| CC#Cc1nccc2cnc(Nc3ccc(S(=O)(=O)Nc4nccc(OC)n4)cc3)cc12 [Ex 879, N-(4-methoxypyrimidin-2-yl)-4-((5-(prop-1-yn-1-yl)-2,6-naphthyridin-3-yl)amino)benzenesulfonamide] | – | – | – | – | IC50 [1, 13]: 25 to 250 nM; IC50 [2, 10]: > 250 nM; IC50 [3, 14]: > 250 nM; IC50 [4, 15]: > 250 nM |
| Cc1c(-c2nccc3cnc(Nc4ccc(NS(=O)(=O)c5cn(C)cn5)cc4)cc23)ccc2c1cnn2CC(C)(C)O [Ex 828, N-(4-((5-(1-(2-hydroxy-2-methylpropyl)-4-methyl-1H-indazol-5-yl)-2,6-naphthyridin-3-yl)amino)phenyl)-1-methyl-1H-imidazole-4-sulfonamide] | – | – | – | – | IC50 [1, 9]: < 25 nM; IC50 ([2]; 25-250 nM, read-out: CDK1/CCNB IC50, 25-250 nM): 25 to 250 nM; IC50 [3, 11]: 25 to 250 nM; IC50 [4, 12]: 25 to 250 nM |
| CC1(C)C(=O)Nc2cc(C#Cc3nccc4cnc(Nc5ccc(S(=N)(=O)C6CC6)cc5)cc34)ccc21 (single isomer, unassigned) [Ex 437, 6-((7-((4-(cyclopropanesulfonimidoyl)phenyl)amino)-2,6-naphthyridin-1-yl)ethynyl)-3,3-dimethylindolin-2-one] | – | – | – | – | IC50 [1, 5]: < 25 nM; IC50 [2, 16]: 25 to 250 nM; IC50 ([3]; x = IC50 <25 nM, read-out: CDK4/CCND IC50 (<25 nM)): < 25 nM; IC50 ([4]; x = IC50 25-250 nM, read-out: CDK6/CCND IC50 (25-250 nM)): 25 to 250 nM |
| CS(=O)(=O)c1ccc(Nc2cc3c(C#Cc4cccc5ncnn45)nccc3cn2)cc1 [Ex 535, 5-([1,2,4]triazolo[1,5-a]pyridin-5-ylethynyl)-N-(4-(methylsulfonyl)phenyl)-2,6-naphthyridin-3-amine] | > 250 | > 250 | > 250 | 25 to 250 | – |
| COc1cccc(NS(=O)(=O)c2ccc(Nc3cc4c(-c5ccc6c(cnn6CC(O)(C(F)(F)F)C(F)(F)F)c5C)nccc4cn3)cc2)c1 [Ex 717, N-(3-methoxyphenyl)-4-((5-(4-methyl-1-(3,3,3-trifluoro-2-hydroxy-2-(trifluoromethyl)propyl)-1H-indazol-5-yl)-2,6-naphthyridin-3-yl)amino)benzenesulfonamide] | – | – | – | – | IC50 [1, 13]: 25 to 250 nM; IC50 [2, 10]: > 250 nM; IC50 [3, 14]: > 250 nM; IC50 [4, 15]: > 250 nM |

Further lines, with some results ahead:

| IC50 [2, 6] [nM] | IC50 [3, 7] [nM] | IC50 [4, 8] [nM] | IC50 [1, 17] [nM] | SMILES | other results |
| --- | --- | --- | --- | --- | --- |
| > 250 | > 250 | > 250 | – | COc1cc(S(C)(=O)=O)ccc1Nc1cc2c(C#Cc3ccc4c(c3)NC(=O)C43CCC3)nccc2cn1 [Ex 361, 6'-((7-((2-methoxy-4-(methylsulfonyl)phenyl)amino)-2,6-naphthyridin-1-yl)ethynyl)spiro[cyclobutane-1,3'-indolin]-2'-one] | IC50 [1, 5]: < 25 nM |
| – | > 250 | > 250 | – | O=C1Nc2cc(C#Cc3nccc4cnc(Nc5ccc(S(=O)(=O)C6CC6)cc5)cc34)ccc2C12CC2 [Ex 392, 6'-((7-((4-(cyclopropylsulfonyl)phenyl)amino)-2,6-naphthyridin-1-yl)ethynyl)spiro[cyclopropane-1,3'-indolin]-2'-one] | IC50 [1, 5]: < 25 nM; IC50 [2, 16]: 25 to 250 nM |
| > 250 | > 250 | > 250 | – | CC1(C)C(=O)Nc2cc(C#Cc3nccc4cnc(Nc5ccc(S(C)(=O)=O)c(O)c5)cc34)ccc21 [Ex 379, 6-((7-((3-hydroxy-4-(methylsulfonyl)phenyl)amino)-2,6-naphthyridin-1-yl)ethynyl)-3,3-dimethylindolin-2-one] | IC50 [1, 5]: < 25 nM |
| > 250 | > 250 | > 250 | 25 to 250 | CCS(=N)(=O)c1ccc(Nc2cc3c(C#Cc4cccnc4N)nccc3cn2)cc1 (single isomer, unassigned) [Ex 474, (4-((5-((2-aminopyridin-3-yl)ethynyl)-2,6-naphthyridin-3-yl)amino)phenyl)(ethyl)(imino)-l6-sulfanone] | – |
| > 250 | > 250 | > 250 | 25 to 250 | CS(=O)(=O)c1ccc(Nc2cc3c(C#Cc4ccc5c(c4)OCC(=O)N5)nccc3cn2)cc1 [Example 519, 7-((7-((4-(methylsulfonyl)phenyl)amino)-2,6-naphthyridin-1-yl)ethynyl)-2H-benzo[b][1,4]oxazin-3(4H)-one] | – |
| > 250 | > 250 | > 250 | – | CC1(C)C(=O)Nc2cc(C#Cc3nccc4cnc(Nc5ccc(S(C)(=O)=O)cc5O)cc34)ccc21 [Ex 380, 6-((7-((2-hydroxy-4-(methylsulfonyl)phenyl)amino)-2,6-naphthyridin-1-yl)ethynyl)-3,3-dimethylindolin-2-one] | IC50 [1, 5]: < 25 nM |
| > 250 | > 250 | > 250 | 25 to 250 | Cc1c(C#N)ccc(C#Cc2nccc3cnc(Nc4ccc(S(C)(=O)=O)cc4)cc23)c1C [Ex 643, 2,3-dimethyl-4-((7-((4-(methylsulfonyl)phenyl)amino)-2,6-naphthyridin-1-yl)ethynyl)benzonitrile] | – |
| > 250 | > 250 | > 250 | 25 to 250 | CS(=O)(=O)c1ccc(Nc2cc3c(C#Cc4cnc(C#N)c(N)c4)nccc3cn2)cc1 [Ex 536, 3-amino-5-((7-((4-(methylsulfonyl)phenyl)amino)-2,6-naphthyridin-1-yl)ethynyl)picolinonitrile] | – |
